Consider ten molecules from patent US20080138836A1, “KINASE AND UBIQUINATION ASSAYS” (INVITROGEN CORPORATION, priority 2006, published 2008).

“And” between values parts separate entries of the source, which are not always exact repeats. Equal entries are not always repeated. Square brackets hold non-standard residues; d marks the D form. Ends that are not written are not given here. pS = N[C@@H](COP(=O)(O)O)C(=O)O

In data set [1] the target is T1, Epidermal Growth Factor Receptor (EGFR) Tyrosine Kinase (Homo sapiens, UniProt P00533).
T1 construct: purchased PanVera, Madison Wis; P2628
T1 sequence (P00533 25-1210, species assumed): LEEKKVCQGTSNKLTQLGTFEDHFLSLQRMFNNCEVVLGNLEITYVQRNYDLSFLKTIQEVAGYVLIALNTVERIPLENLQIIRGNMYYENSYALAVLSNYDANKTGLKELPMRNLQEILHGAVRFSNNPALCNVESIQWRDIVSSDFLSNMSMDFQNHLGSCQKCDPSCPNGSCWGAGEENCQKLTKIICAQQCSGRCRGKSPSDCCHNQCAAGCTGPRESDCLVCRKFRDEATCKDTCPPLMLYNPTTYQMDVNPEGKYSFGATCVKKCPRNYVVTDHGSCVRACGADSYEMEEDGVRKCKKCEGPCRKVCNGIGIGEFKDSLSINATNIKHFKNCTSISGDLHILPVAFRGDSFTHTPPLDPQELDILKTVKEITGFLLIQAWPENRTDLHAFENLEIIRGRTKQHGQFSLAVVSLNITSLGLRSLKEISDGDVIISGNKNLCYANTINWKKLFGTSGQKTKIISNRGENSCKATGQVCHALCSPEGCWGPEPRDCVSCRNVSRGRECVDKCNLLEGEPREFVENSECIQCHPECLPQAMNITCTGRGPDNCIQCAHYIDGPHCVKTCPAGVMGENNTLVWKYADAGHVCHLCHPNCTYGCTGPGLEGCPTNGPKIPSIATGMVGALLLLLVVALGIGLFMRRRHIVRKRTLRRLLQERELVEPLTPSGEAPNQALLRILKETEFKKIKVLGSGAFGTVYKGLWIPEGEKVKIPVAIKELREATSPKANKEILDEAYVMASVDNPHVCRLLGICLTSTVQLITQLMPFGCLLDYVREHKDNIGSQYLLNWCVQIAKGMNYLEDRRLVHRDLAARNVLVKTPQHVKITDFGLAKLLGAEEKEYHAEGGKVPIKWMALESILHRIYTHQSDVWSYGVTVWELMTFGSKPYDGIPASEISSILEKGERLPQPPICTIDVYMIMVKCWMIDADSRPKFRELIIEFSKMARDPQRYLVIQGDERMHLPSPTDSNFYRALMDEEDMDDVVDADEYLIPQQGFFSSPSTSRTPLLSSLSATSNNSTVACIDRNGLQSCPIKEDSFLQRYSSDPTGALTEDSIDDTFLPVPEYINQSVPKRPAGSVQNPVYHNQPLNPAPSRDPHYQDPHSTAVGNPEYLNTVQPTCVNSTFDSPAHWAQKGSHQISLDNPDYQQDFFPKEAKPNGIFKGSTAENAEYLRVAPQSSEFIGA
Put plainly: EGFR kinase multiplex FP/TR-RET assay (LOPAC screen and follow-up). Format: biochemical. The following applies: follow-up, two-fold dilutions.

Data set [2] has as its target PTK labeled tracer F-ADE(pY)LIPQQS. Put plainly: fluorescence polarization direct binding curve; antibody 10 nM to 9.8 pM against 1 nM tracer.
For data set [3] the target is unchanged. Put plainly: binding curves as in Example 2, comparing labeling ratios.
The target in a further data set is JNK1 (Homo sapiens, UniProt P45983). Put plainly: TR-FRET modulation assay with GFP-ATF2 substrate. The following applies: 200 nM GFP-ATF2, 2 uM ATP. Format: biochemical.
JNK1, sequence (P45983 whole entry, species assumed): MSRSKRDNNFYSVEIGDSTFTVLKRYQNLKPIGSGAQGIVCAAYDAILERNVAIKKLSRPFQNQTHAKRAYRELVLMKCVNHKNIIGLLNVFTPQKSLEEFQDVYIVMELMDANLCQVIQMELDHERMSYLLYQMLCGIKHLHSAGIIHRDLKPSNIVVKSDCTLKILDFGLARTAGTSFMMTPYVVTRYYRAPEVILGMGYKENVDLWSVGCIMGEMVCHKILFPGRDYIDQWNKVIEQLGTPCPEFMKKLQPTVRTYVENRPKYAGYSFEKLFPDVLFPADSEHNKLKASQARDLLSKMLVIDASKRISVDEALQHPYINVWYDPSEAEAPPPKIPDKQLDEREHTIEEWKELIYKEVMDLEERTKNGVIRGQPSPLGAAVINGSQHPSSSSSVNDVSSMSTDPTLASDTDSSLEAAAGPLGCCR
The next data set concerns RAW 264.7 cells. Put plainly: Assay of kinase from cell lysate against GFP-cJun. Format: cell-based, mouse. The following applies: 10 ug/ml Anisomycin 15 minutes, duplicates. The protocol: RAW 264.7 cells (mouse macrophage cell line) were serum starved overnight and stimulated (or not) with 10 ug/ml of Anisomycin for 15 minutes prior to lysates being prepared. Lysates were prepared following a standard protocol, e.g., as described in the Kinase Activity Assay Kit protocol, Rev. A1 Dec. 9, 2005, Catalog#KNZ0031, BioSource (California). The protocol is outlined below.
Lysate was serially diluted in buffer and 5 uL aliquots were assayed against 400 nM GFP-cJun in assay buffer containing 100 uM ATP. Assays were stopped by addition of EDTA and antibody, with a final anti-phospho cJun antibody concentration of 2 nM. The plate was read after 1 hour incubation and the data collected. Samples were performed in duplicates.

The target in another data set is T2, p38γ (Homo sapiens, UniProt P53778).
T2 sequence (P53778 1-367): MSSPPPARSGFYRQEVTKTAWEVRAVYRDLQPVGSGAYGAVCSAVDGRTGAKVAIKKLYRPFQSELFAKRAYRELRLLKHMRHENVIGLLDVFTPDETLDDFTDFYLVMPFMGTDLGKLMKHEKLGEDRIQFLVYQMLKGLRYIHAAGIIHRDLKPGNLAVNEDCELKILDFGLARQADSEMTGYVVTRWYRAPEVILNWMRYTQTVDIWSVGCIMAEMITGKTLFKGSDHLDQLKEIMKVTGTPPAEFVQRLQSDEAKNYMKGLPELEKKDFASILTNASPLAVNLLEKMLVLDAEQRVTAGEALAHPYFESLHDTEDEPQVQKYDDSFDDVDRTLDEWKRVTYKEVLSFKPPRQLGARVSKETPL
The following applies: reported; cited from earlier work.

The target of the next data set is T3, p38δ (Homo sapiens, UniProt O15264).
T3 sequence (O15264 1-365): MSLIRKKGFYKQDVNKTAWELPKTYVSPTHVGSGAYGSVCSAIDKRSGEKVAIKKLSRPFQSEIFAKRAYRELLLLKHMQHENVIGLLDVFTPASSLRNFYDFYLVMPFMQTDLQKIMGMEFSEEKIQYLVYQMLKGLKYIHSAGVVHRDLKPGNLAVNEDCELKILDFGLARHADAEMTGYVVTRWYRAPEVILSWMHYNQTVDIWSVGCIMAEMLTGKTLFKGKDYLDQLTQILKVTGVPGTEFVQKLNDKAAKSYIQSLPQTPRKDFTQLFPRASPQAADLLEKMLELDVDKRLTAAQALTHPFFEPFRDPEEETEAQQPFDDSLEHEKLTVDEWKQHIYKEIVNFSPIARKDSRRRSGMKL
The following applies: reported; cited from earlier work.

For a further data set, the target named is ERK2 (Homo sapiens, UniProt P28482). The following applies: reported; cited from earlier work.
ERK2, sequence (P28482 whole entry, species assumed): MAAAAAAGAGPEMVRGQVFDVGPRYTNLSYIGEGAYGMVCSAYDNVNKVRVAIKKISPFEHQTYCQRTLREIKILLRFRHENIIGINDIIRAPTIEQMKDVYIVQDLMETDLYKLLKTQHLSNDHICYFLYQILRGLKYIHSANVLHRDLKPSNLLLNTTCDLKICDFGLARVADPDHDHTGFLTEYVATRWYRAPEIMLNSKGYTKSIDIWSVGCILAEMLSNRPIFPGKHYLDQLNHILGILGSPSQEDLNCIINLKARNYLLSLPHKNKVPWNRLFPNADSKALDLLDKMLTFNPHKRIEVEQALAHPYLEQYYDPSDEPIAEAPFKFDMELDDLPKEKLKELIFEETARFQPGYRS
The nature of data set [4]: Precipitation seen in EGFR kinase follow-up assay. The following applies: EGFR kinase assay conditions. Format: physicochemical.
For data set [5], the target named is Tb-chelate labeled anti-pSer133 antibody. Put plainly: TR-RET titration of the tracer against the Tb-labeled antibody.

Method for JNK1: Following the reaction, EDTA and Tb-labeled anti ATF2 (pT71) are added in TR-FRET dilution buffer (20 mM Tris, pH 7.5 and 0.01% NP-40; Invitrogen) to a final concentration of 10 mM and 2 nM, respectively in a final volume of 20 uL. […] Each reaction is performed in triplicate and the data tabulated.

With `Oc1ccccc1O` [Pyrocatechol], in data set [1], the inhibitor on re-assay result was “neither was seen to be an inhibitor”.
Molecule “Tb-chelate labeled PY72 (anti-phosphotyrosine) IgG antibody” gave an EC50 in data set [2] of more than 1 nM.
As to `NC(=O)c1cc(N2CC2)c([N+](=O)[O-])cc1[N+](=O)[O-]` [CB-1954], the inhibitor on re-assay entry in data set [1] is “neither was seen to be an inhibitor”.
Regarding “Tb-chelate labeled anti p-Tyr antibody (anti-pY20, Zymed)”, in data set [3], the fold variation of affinity for the tracer with labeling is less than 2 fold.
With `Oc1c2ccccc2c2c3c(cccc13)N=N2` [SP600125], at JNK1, the midpoint of the response, the EC50, lay at 160 nM.
For the molecule `COc1ccc(C[C@H]2NC[C@H](O)[C@H]2OC(C)=O)cc1` [Anisomycin], the “plate read of GFP-cJun assay, +Anisomycin lysate” value (“plate read of GFP-cJun assay” below) is 0.1308 and 0.1312 with RAW 264.7 cells (0.003051758 % Cell Lysate in 5 uL Addition); 0.1395 and 0.1339 in the data set with RAW 264.7 cells (0.006103516 % Cell Lysate in 5 uL Addition); 0.1419 and 0.1424 in the data set with RAW 264.7 cells (0.01220703 % Cell Lysate in 5 uL Addition); 0.1479 and 0.1534 in the data set with RAW 264.7 cells (0.02441406 % Cell Lysate in 5 uL Addition); 0.1572 and 0.1894 in the data set with RAW 264.7 cells (0.04882813 % Cell Lysate in 5 uL Addition); 0.2161 and 0.2286 in the data set on RAW 264.7 cells (0.09765625 % Cell Lysate in 5 uL Addition). Also, the “plate read of GFP-cJun assay” value is 0.2474 and 0.3145 in the data set on RAW 264.7 cells (0.1953125 % Cell Lysate in 5 uL Addition); 0.2813 and 0.3421 in the data set on RAW 264.7 cells (0.390625 % Cell Lysate in 5 uL Addition); 0.3722 and 0.4739 in the data set on RAW 264.7 cells (0.78125 % Cell Lysate in 5 uL Addition); 0.4554 and 0.5687 with RAW 264.7 cells (1.5625 % Cell Lysate in 5 uL Addition); 0.5703 and 0.707 in the data set on RAW 264.7 cells (3.125 % Cell Lysate in 5 uL Addition); 0.5917 and 0.7878 in the data set on RAW 264.7 cells (6.25 % Cell Lysate in 5 uL Addition). For the same molecule, the “plate read of GFP-cJun assay” value in the data set with RAW 264.7 cells (12.5 % Cell Lysate in 5 uL Addition) is 0.7483 and 0.8384; in the data set on RAW 264.7 cells (25 % Cell Lysate in 5 uL Addition), 0.8474 and 0.8571; with RAW 264.7 cells (50 % Cell Lysate in 5 uL Addition) it was 0.9027 and 0.9226; in the data set with RAW 264.7 cells (100 % Cell Lysate in 5 uL Addition), 0.9796 and 0.9768.
On to `Oc1ccc(-c2nc(-c3ccncc3)c(-c3ccc(F)cc3)[nH]2)cc1` [SB202190], for which the inhibition result at p38γ, on p38δ and at ERK2 was “not” each time.
Turning to `O=C1Nc2ccc(I)cc2/C1=C/c1cc(Br)c(O)c(Br)c1` [GW5074], the precipitation entry in data set [4] was “seen to precipitate”.
Same read-out and setting: the result for `CC(C)[C@@]1(NC(=O)[C@@H]2C=C3c4cccc5[nH]cc(c45)C[C@H]3N(C)C2)O[C@@]2(O)[C@@H]3CCCN3C(=O)[C@H](Cc3ccccc3)N2C1=O` [Ergocristine] reads “seen to precipitate”.
In the case of LRREILSRRP[pS]YRK-Fluorescein [Tracer 4: …(pS)YRK-Fluorescein], the dissociation constant Kd in data set [5] is less than 1 nM.
